Experimental data reported in PubChem BioAssay AID1620 (Sanford-Burnham Center for Chemical Genomics, 2009).
Active and inactive are the calls of the source.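 Rule for the calls: active = toxicity graded low, moderate or high, meaning less radioactive sulfur built into protein than in solvent-only controls; inactive = the rest.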

These compounds were tested on HeLa, 35S-Met/Cys protein incorporation toxicity, 3 h (assay: 35S-Met/Cys incorporation reduction in HeLa – HeLa cells, cytotoxicity control for PMI inhibitor project, late-stage follow-up (AID 1620)).

Compound | outcome
Cc1ccnc(-n2sc3ccccc3c2=O)n1 | inactive; no toxicity
O=c1c2ccccc2sn1-c1ccccc1 | inactive; no toxicity
Clc1ccc(N=c2ssnc2Cl)cc1Cl | active; highly toxic
Cc1ccc(C=Nn2c(-c3ccncc3)n[nH]c2=S)cc1 | inactive; no toxicity
O=c1c2ccccc2sn1-c1cccc(Cl)c1 | active; highly toxic
O=c1c2c([N+](=O)[O-])cc([N+](=O)[O-])cc2sn1-c1ccccc1F | active; low toxicity
O=c1c2ccccc2sn1-c1nccs1 | inactive; no toxicity
COc1ccc2c(=O)n(C3CCCC3)sc2c1 | inactive; no toxicity
O=c1c2cc(F)ccc2sn1-c1ccccc1 | active; moderate toxicity
Clc1nssc1=Nc1ccc(Br)cc1 | active; high toxicity
CCOc1ccc(-c2nc(=S)[nH][nH]2)cc1 | inactive; no toxicity
O=[N+]([O-])c1ccc(N=c2ssnc2Cl)c2ccccc12 | active; low toxicity
Cc1ccc(C)c(N2Cc3ccccc3C2=O)c1 | active; low toxicity
COc1ccc(N=c2ssnc2Cl)cc1OC | active; highly toxic
COc1cccc(-n2sc3ccccc3c2=O)c1 | active; low toxicity
Nc1ccccc1N=c1ssnc1Cl | inactive; no toxicity
O=c1c2ccccc2sn1-c1cccc(C(F)(F)F)c1 | active; highly toxic
COC(=O)c1cccc(-n2sc3ccccc3c2=O)c1 | active; moderate toxicity
S=c1nc(-c2cccc(Cl)c2)[nH][nH]1 | inactive; no toxicity
COc1ccc(OC)c(N=c2ssnc2Cl)c1 | inactive; no toxicity
COc1ccc(-c2nc(=S)[nH][nH]2)cc1 | inactive; no toxicity

Compound | outcome
CC(C)(C)c1ccc(N=c2ssnc2Cl)cc1 | active; moderate toxicity
CN(C)c1cccc(-n2sc3ccccc3c2=O)c1 | inactive; no toxicity
Cc1ccc(N=c2ssnc2Cl)c([N+](=O)[O-])c1 | active; low toxicity
O=C(O)c1ccccc1NS(=O)(=O)c1cccc(-n2sc3ccccc3c2=O)c1 | active; high toxicity
Cc1cccc(-n2sc3cc(F)ccc3c2=O)c1C | active; moderate toxicity
COc1ccc(-c2nc(=S)[nH][nH]2)cc1OC | inactive; no toxicity
Clc1nss/c1=N\c1nncs1 | active; moderate toxicity
Cc1ccc(C)c(-n2sc3cc(F)ccc3c2=O)c1 | active; high toxicity
COc1cc(N=c2ssnc2Cl)c(OC)cc1Cl | active; low toxicity
O=c1c2ccccc2sn1-c1ccc2ccccc2c1 | active; high toxicity
N#Cc1ccc(N=c2ssnc2Cl)cc1 | inactive; no toxicity
CN(C)c1cccc(N=c2ssnc2Cl)c1 | active; highly toxic
Cc1ccc(C)c(-n2sc3ccc(F)cc3c2=O)c1 | active; moderate toxicity
Clc1nss/c1=N\c1nc2ccccc2s1 | active; highly toxic
CCSc1n[nH]c(=S)s1 | inactive; no toxicity
Cc1c(Cl)cccc1-n1sc2cc([N+](=O)[O-])cc(OCC(F)(F)F)c2c1=O | active; low toxicity
O=c1c2ccccc2sn1-c1ccc(F)cc1 | active; moderate toxicity
Cc1ccc(N=c2ssnc2Cl)cc1[N+](=O)[O-] | active; moderate toxicity
N#CC1=C2SCN(Cc3ccccc3)CN2C(=O)CC1c1ccc2c(c1)OCO2 (stereo not drawn) | inactive; no toxicity
Cc1ccc(C)c(-n2[nH]c3ccccc3c2=O)c1 | inactive; no toxicity
S=c1nc(C2COc3ccccc3O2)[nH][nH]1 (stereo not drawn) | inactive; no toxicity

Compound | outcome
O=c1c2c([N+](=O)[O-])cc([N+](=O)[O-])cc2sn1-c1ccc(F)c(Cl)c1 | inactive; no toxicity
CN(C)c1ccc(N=c2ssnc2Cl)cc1 | active; moderate toxicity
Cc1ccc(N=c2ssnc2Cl)cc1C | active; moderate toxicity
CCc1cc(CC)c(N=c2ssnc2Cl)c(CC)c1 | active; highly toxic
FC(F)(F)c1ccc(N=c2ssnc2Cl)cc1 | active; moderate toxicity
O=c1c2ccc(F)cc2sn1-c1cc(Cl)ccc1Cl | active; highly toxic
COc1cc(N=c2ssnc2Cl)cc(OC)c1OC | inactive; no toxicity
COc1cc(N=c2ssnc2Cl)cc(OC)c1 | inactive; no toxicity
O=c1c2ccccc2sn1-c1cccc(S(=O)(=O)Nc2ccc(Cl)cc2)c1 | active; moderate toxicity
O=c1c2ccccc2sn1-c1cc(S(=O)(=O)N2CCOCC2)ccc1N1CCCC1 | active; moderate toxicity
CN(C)S(=O)(=O)c1cccc(-n2sc3ccccc3c2=O)c1 | active; moderate toxicity
O=C(O)c1cccc(-n2sc3ccccc3c2=O)c1 | active; moderate toxicity
O=c1c2ccccc2sn1-c1cc(S(=O)(=O)N2CCOCC2)ccc1N1CCOCC1 | active; moderate toxicity
S=c1nc(-c2ccccc2Br)[nH][nH]1 | inactive; no toxicity
O=C1c2ccccc2SC1c1ccccc1 (stereo not drawn) | active; low toxicity
O=[N+]([O-])c1ccc(N=c2ssnc2Cl)c([N+](=O)[O-])c1 | inactive; no toxicity
S=c1nc(-c2cccc(Br)c2)[nH][nH]1 | inactive; no toxicity
O=C(NCc1ccccc1)c1cccc(-n2sc3ccccc3c2=O)c1 | inactive; no toxicity
Cc1ccc(C)c(-n2sc3ccccc3c2=O)c1 | active; moderate toxicity
Cc1ccc(C)n1-c1nc(=S)[nH][nH]1 | inactive; no toxicity
Cc1ccc(-n2sc3ccccc3c2=O)cc1S(=O)(=O)N1CCCCC1 | active; moderate toxicity

Compound | outcome
Cc1cccc(N=c2ssnc2Cl)c1 | active; moderate toxicity
O=c1c2c([N+](=O)[O-])cc([N+](=O)[O-])cc2sn1-c1ccc(F)cc1 | active; low toxicity
Cc1ccc(N=c2ssnc2Cl)cc1 | inactive; no toxicity
Oc1ccc(N=c2ssnc2Cl)cc1 | inactive; no toxicity
Clc1nssc1=Nc1ccccc1 | inactive; no toxicity
Clc1nss/c1=N\c1nccs1 | inactive; no toxicity
O=c1c2ccccc2sn1-c1ccc(Cl)c(S(=O)(=O)N2CCOCC2)c1 | active; moderate toxicity
Clc1ccc(Nc2ccccc2N=c2ssnc2Cl)cc1 | active; highly toxic
Cc1[nH]n(-c2ccccc2)c(=S)c1C=Nc1cccc([N+](=O)[O-])c1 | inactive; no toxicity
COc1cc(-c2nc(=S)[nH][nH]2)cc(OC)c1OC | inactive; no toxicity
Clc1cccc(N=c2ssnc2Cl)c1 | active; low toxicity
Cc1cccc(-n2sc3ccccc3c2=O)c1 | active; moderate toxicity
Clc1ccc(N=c2ssnc2Cl)cc1 | active; highly toxic
COc1cc([N+](=O)[O-])ccc1N=c1ssnc1Cl | active; moderate toxicity
O=c1c2ccccc2sn1-c1cccc(I)c1 | active; highly toxic
O=c1c2ccccc2sn1-c1ccc(Cl)cc1 | active; highly toxic
Cc1ccc(N=c2ssnc2Cl)nc1 | active; highly toxic
O=C(O)CCn1cc(C=C2C(=O)NC(=S)NC2=O)c(-c2cccc(Br)c2)n1 | inactive; no toxicity
OCc1ccccc1N=c1ssnc1Cl | inactive; no toxicity
O=c1c2ccc(O)cc2sn1C1CCCC1 | inactive; no toxicity
